Results published in PubChem BioAssay AID1259407 (Chemical Carcinogenesis Research Information System (CCRIS), 2018).
Calls of active or inactive are those of the source. How the calls were made is not given here.

System: CCRIS mutagenicity, Ames/micronucleus/aberration tests
Test: CCRIS mutagenicity studies
[1] = Test System: AMES SALMONELLA TYPHIMURIUM, Strain/Indicator: TA102, Metabolic Activation: NONE, Method: PREINCUBATION
[2] = Test System: AMES SALMONELLA TYPHIMURIUM, Strain/Indicator: TA98, Metabolic Activation: NONE, Method: PREINCUBATION
[3] = Test System: AMES SALMONELLA TYPHIMURIUM, Strain/Indicator: TA100, Metabolic Activation: NONE, Method: PREINCUBATION
[4] = Test System: AMES SALMONELLA TYPHIMURIUM, Strain/Indicator: TA98, Metabolic Activation: NONE, Method: STANDARD PLATE
[5] = Test System: AMES SALMONELLA TYPHIMURIUM, Strain/Indicator: TA98, Metabolic Activation: RAT, LIVER, S-9, AROCLOR 1254, Method: STANDARD PLATE
[6] = Test System: AMES SALMONELLA TYPHIMURIUM, Strain/Indicator: TA100, Metabolic Activation: NONE, Method: STANDARD PLATE

**Q.** For `CCCCCC(=O)O`, which mutagenic call (Test System: AMES SALMONELLA TYPHIMURIUM, Strain/Indicator: TA97, Metabolic Activation: NONE, Method: PREINCUBATION) is on record?
**A.** The mutagenic call was “inactive; negative”.

**Q.** And the mutagenic call (Test System: AMES SALMONELLA TYPHIMURIUM, Strain/Indicator: TA97, Metabolic Activation: RAT, LIVER, S-9, AROCLOR 1254, Method: PREINCUBATION)?
**A.** Its mutagenic call is “inactive; negative”.

**Q.** And the mutagenic call [1]?
**A.** Its mutagenic call is “inactive; negative”.

**Q.** And the mutagenic call (Test System: AMES SALMONELLA TYPHIMURIUM, Strain/Indicator: TA102, Metabolic Activation: RAT, LIVER, S-9, AROCLOR 1254, Method: PREINCUBATION)?
**A.** Its mutagenic call is “inactive; negative”.

**Q.** Which results are given for `COS(=O)(=O)C(F)(F)F`?
**A.** mutagenic call (Test System: AMES SALMONELLA TYPHIMURIUM, Strain/Indicator: TA100, Metabolic Activation: HAMSTER, LIVER, S-9, AROCLOR 1254 (10%), Method: PREINCUBATION): active; positive; mutagenic call (Test System: MOUSE LYMPHOMA, Strain/Indicator: L5178Y (TK+/TK-), Metabolic Activation: NONE, Method: SUSPENSION/PLATE): active; positive. reevaluation of results: positive; mutagenic call (Test System: MOUSE LYMPHOMA, Strain/Indicator: L5178Y (TK+/TK-), Metabolic Activation: RAT, LIVER, S-9, AROCLOR 1254, Method: SUSPENSION/PLATE): active; positive. reevaluation of results: positive

**Q.** What does the source list for `CC(=O)Nc1ccc(Oc2ccc([N+](=O)[O-])cc2)cc1`?
**A.** mutagenic call (Test System: AMES SALMONELLA TYPHIMURIUM, Strain/Indicator: TA98(1,8-DNP6), Metabolic Activation: NONE, Method: PREINCUBATION): inactive; negative; mutagenic call (Test System: AMES SALMONELLA TYPHIMURIUM, Strain/Indicator: TA98(1,8-DNP6), Metabolic Activation: RAT, LIVER, S-9, AROCLOR 1254, Method: PREINCUBATION): inactive; negative; mutagenic call (Test System: AMES SALMONELLA TYPHIMURIUM, Strain/Indicator: TA98(NR), Metabolic Activation: NONE, Method: PREINCUBATION): inactive; negative; mutagenic call (Test System: AMES SALMONELLA TYPHIMURIUM, Strain/Indicator: TA98(NR), Metabolic Activation: RAT, LIVER, S-9, AROCLOR 1254, Method: PREINCUBATION): inactive; negative; mutagenic call [2]: active; positive; mutagenic call (Test System: AMES SALMONELLA TYPHIMURIUM, Strain/Indicator: TA98, Metabolic Activation: RAT, LIVER, S-9, AROCLOR 1254, Method: PREINCUBATION): active; positive; mutagenic call (Test System: AMES SALMONELLA TYPHIMURIUM, Strain/Indicator: TA100(NR), Metabolic Activation: NONE, Method: PREINCUBATION): inactive; negative; mutagenic call (Test System: AMES SALMONELLA TYPHIMURIUM, Strain/Indicator: TA100(NR), Metabolic Activation: RAT, LIVER, S-9, AROCLOR 1254, Method: PREINCUBATION): active; positive; mutagenic call [3]: active; positive; mutagenic call (Test System: AMES SALMONELLA TYPHIMURIUM, Strain/Indicator: TA100, Metabolic Activation: RAT, LIVER, S-9, AROCLOR 1254, Method: PREINCUBATION): active; positive

**Q.** With `Cc1cccnc1` as the compound, how does the mutagenic call (Test System: AMES SALMONELLA TYPHIMURIUM, Strain/Indicator: TA97, Metabolic Activation: NONE, Method: STANDARD PLATE) read?
**A.** Its mutagenic call is “inactive; negative”.

**Q.** And the mutagenic call (Test System: AMES SALMONELLA TYPHIMURIUM, Strain/Indicator: TA97, Metabolic Activation: RAT, LIVER, S-9, AROCLOR 1254, Method: STANDARD PLATE)?
**A.** Its mutagenic call is “inactive; negative”.

**Q.** What about the mutagenic call [4] of the same compound?
**A.** Its mutagenic call is “inactive; negative”.

**Q.** What about the mutagenic call [5] of the same compound?
**A.** Its mutagenic call is “inactive; negative”.

**Q.** And the mutagenic call [6]?
**A.** The mutagenic call was “inactive; negative”.

**Q.** What about the mutagenic call (Test System: AMES SALMONELLA TYPHIMURIUM, Strain/Indicator: TA100, Metabolic Activation: RAT, LIVER, S-9, AROCLOR 1254, Method: STANDARD PLATE) of the same compound?
**A.** The mutagenic call was “inactive; negative”.

**Q.** And the mutagenic call (Test System: AMES SALMONELLA TYPHIMURIUM, Strain/Indicator: TA102, Metabolic Activation: NONE, Method: STANDARD PLATE)?
**A.** The mutagenic call was “inactive; negative”.

**Q.** And the mutagenic call (Test System: AMES SALMONELLA TYPHIMURIUM, Strain/Indicator: TA102, Metabolic Activation: RAT, LIVER, S-9, AROCLOR 1254, Method: STANDARD PLATE)?
**A.** The mutagenic call was “inactive; negative”.

**Q.** For `O=C1c2c(ccc3ccccc23)-c2cccc3cccc1c23`, which mutagenic call [4] is on record?
**A.** The mutagenic call was “inactive; negative”.

**Q.** And the mutagenic call [6]?
**A.** Its mutagenic call is “inactive; negative”.

**Q.** Which results are given for `O=c1ccc2c(cc3ccc4cccc5ccc2c3c45)c1=O`?
**A.** mutagenic call (Test System: AMES SALMONELLA TYPHIMURIUM, Strain/Indicator: TA97A, Metabolic Activation: NONE, Method: PREINCUBATION): active; positive; mutagenic call [2]: inactive; negative; mutagenic call [3]: inactive; negative; mutagenic call [1]: inactive; negative; mutagenic call (Test System: AMES SALMONELLA TYPHIMURIUM, Strain/Indicator: TA104, Metabolic Activation: NONE, Method: PREINCUBATION): inactive; negative

**Q.** For `Cc1ccc2cc3c4c(ccc3c3c2c1C[C@H]3O)[C@@H](O)[C@H](O)C=C4`, which mutagenic call (Test System: CHINESE HAMSTER V-79, Strain/Indicator: V-79/8-AZAGUANINE, Metabolic Activation: RAT, LIVER, S-9, AROCLOR, Method: STANDARD PLATE) is on record?
**A.** Its mutagenic call is “active; positive”.

**Q.** For `C[C@@H]1C[C@H]2[C@@H]3CCC4=CC(=O)C=C[C@]4(C)[C@@]3(F)[C@@H](O)C[C@]2(C)[C@@]1(O)C(=O)CO`, which mutagenic call (End Point: IN VITRO CHROMOSOMAL ABERRATIONS, Test System: HUMAN PERIPHERAL LYMPHOCYTES, Metabolic Activation: NONE) is on record?
**A.** The mutagenic call was “active; positive at 10 and 100 ug/ml with 72 hr treatment”.

**Q.** What about the mutagenic call (End Point: IN VIVO MICRONUCLEUS, Test System: BONE MARROW POLYCHROMATIC ERYTHROCYTES, Species: MOUSE, Strain/Sex: SWISS/MALE, Route: IP INJECTION (SINGLE DOSE)) of the same compound?
**A.** The mutagenic call was “active; positive”.

**Q.** And the mutagenic call (Test System: AMES SALMONELLA TYPHIMURIUM, Strain/Indicator: TA97A, Metabolic Activation: NONE, Method: STANDARD PLATE)?
**A.** The mutagenic call was “inactive; negative”.

**Q.** And the mutagenic call (Test System: AMES SALMONELLA TYPHIMURIUM, Strain/Indicator: TA97A, Metabolic Activation: RAT, LIVER, S-9, PHENOBARBITAL, Method: STANDARD PLATE)?
**A.** Its mutagenic call is “inactive; negative”.

**Q.** What about the mutagenic call [4] of the same compound?
**A.** Its mutagenic call is “inactive; negative”.

**Q.** And the mutagenic call (Test System: AMES SALMONELLA TYPHIMURIUM, Strain/Indicator: TA98, Metabolic Activation: RAT, LIVER, S-9, PHENOBARBITAL, Method: STANDARD PLATE)?
**A.** Its mutagenic call is “inactive; negative”.

**Q.** And the mutagenic call [6]?
**A.** Its mutagenic call is “inactive; negative”.

**Q.** What about the mutagenic call (Test System: AMES SALMONELLA TYPHIMURIUM, Strain/Indicator: TA100, Metabolic Activation: RAT, LIVER, S-9, PHENOBARBITAL, Method: STANDARD PLATE) of the same compound?
**A.** Its mutagenic call is “inactive; negative”.

**Q.** And the mutagenic call (Test System: AMES SALMONELLA TYPHIMURIUM, Strain/Indicator: TA1535, Metabolic Activation: NONE, Method: STANDARD PLATE)?
**A.** The mutagenic call was “inactive; negative”.

**Q.** What about the mutagenic call (Test System: AMES SALMONELLA TYPHIMURIUM, Strain/Indicator: TA1535, Metabolic Activation: RAT, LIVER, S-9, PHENOBARBITAL, Method: STANDARD PLATE) of the same compound?
**A.** Its mutagenic call is “inactive; negative”.

**Q.** For `CCc1c(O)c(O)c2c(c1O)C(=O)C(O)=C(O)C2=O`, which mutagenic call (Test System: AMES SALMONELLA TYPHIMURIUM, Strain/Indicator: TA98, Metabolic Activation: MICROSOMAL FRACTION, FULLY ACTIVATED, AND RAT LIVER S-9, Method: STANDARD PLATE) is on record?
**A.** Its mutagenic call is “active; positive”.

**Q.** What about the mutagenic call (Test System: AMES SALMONELLA TYPHIMURIUM, Strain/Indicator: TA98, Metabolic Activation: MICROSOMAL FRACTION, NON-FULLY ACTIVATED, Method: STANDARD PLATE) of the same compound?
**A.** Its mutagenic call is “active; positive”.

**Q.** And the mutagenic call (Test System: AMES SALMONELLA TYPHIMURIUM, Strain/Indicator: TA100, Metabolic Activation: MICROSOMAL FRACTION, FULLY ACTIVATED, AND RAT LIVER S-9, Method: STANDARD PLATE)?
**A.** The mutagenic call was “active; positive”.

**Q.** What about the mutagenic call (Test System: AMES SALMONELLA TYPHIMURIUM, Strain/Indicator: TA100, Metabolic Activation: MICROSOMAL FRACTION, NON-FULLY ACTIVATED, Method: STANDARD PLATE) of the same compound?
**A.** The mutagenic call was “active; positive”.

**Q.** And the mutagenic call (Test System: AMES SALMONELLA TYPHIMURIUM, Strain/Indicator: TA1537, Metabolic Activation: MICROSOMAL FRACTION, FULLY ACTIVATED, AND RAT LIVER S-9, Method: STANDARD PLATE)?
**A.** The mutagenic call was “active; positive”.

**Q.** And the mutagenic call (Test System: AMES SALMONELLA TYPHIMURIUM, Strain/Indicator: TA1537, Metabolic Activation: MICROSOMAL FRACTION, NON-FULLY ACTIVATED, Method: STANDARD PLATE)?
**A.** The mutagenic call was “inactive; negative”.

**Q.** Which mutagenic call [5] does the source give for `CNc1ccc2ccc3ccc(O)cc3c2c1` here?
**A.** Its mutagenic call is “active; positive”.

**Q.** What about the mutagenic call (Test System: AMES SALMONELLA TYPHIMURIUM, Strain/Indicator: TA98, Metabolic Activation: RAT, LIVER, S-9, AROCLOR, Method: STANDARD PLATE) of the same compound?
**A.** The mutagenic call was “active; positive”.
